Laboratory results taken from ChEMBL document CHEMBL1201862, “PubChem BioAssay data set” (2004).
The source made the active and inactive calls.

Key:
Large T antigen = Large T antigen (Simian virus 40, UniProt P03070); type: functional, Betapolyomavirus macacae;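 further: Confirmatory-stage PubChem screen for compounds that inhibit SV40 T antigen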
[1] = target: T1, Long-chain-fatty-acid--AMP ligase FadD28 (Mycobacterium tuberculosis, UniProt P9WQ59); assay: Fluorescence polarization aasay to screen for inhibitors that compete for the binding of FadD28 to a bisubstrate Measured in Biochemical System Using Plate Reader - 2147-01_Inhibitor_Dose_CherryPick_Activity.; type: functional, Mycobacterium tuberculosis H37Rv
T1 sequence (P9WQ59 whole entry): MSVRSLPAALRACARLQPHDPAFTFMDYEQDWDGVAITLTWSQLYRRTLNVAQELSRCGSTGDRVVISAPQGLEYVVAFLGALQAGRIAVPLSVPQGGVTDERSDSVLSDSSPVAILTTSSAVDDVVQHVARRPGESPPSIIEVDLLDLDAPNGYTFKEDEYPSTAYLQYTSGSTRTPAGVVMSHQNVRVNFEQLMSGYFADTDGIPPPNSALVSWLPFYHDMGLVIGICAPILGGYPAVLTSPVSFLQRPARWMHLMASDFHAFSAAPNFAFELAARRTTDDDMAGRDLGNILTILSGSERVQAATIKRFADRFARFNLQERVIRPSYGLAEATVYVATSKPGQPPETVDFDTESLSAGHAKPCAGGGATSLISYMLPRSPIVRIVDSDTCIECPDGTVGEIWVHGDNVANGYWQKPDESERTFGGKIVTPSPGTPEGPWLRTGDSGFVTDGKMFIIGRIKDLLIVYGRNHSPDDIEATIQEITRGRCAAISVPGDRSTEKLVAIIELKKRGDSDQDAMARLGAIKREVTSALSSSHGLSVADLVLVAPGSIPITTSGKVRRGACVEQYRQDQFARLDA

[2] = target: T2, Rac GTPase-activating protein 1 (Homo sapiens, UniProt Q9H0H5); assay: blockers of MgcRacGAP-driven Rac1 GTP hydrolysis – biochemical, ADP Hunter fluorescence, primary and confirmatory, confirmation (AID 624330); type: functional
T2 sequence (Q9H0H5 whole entry): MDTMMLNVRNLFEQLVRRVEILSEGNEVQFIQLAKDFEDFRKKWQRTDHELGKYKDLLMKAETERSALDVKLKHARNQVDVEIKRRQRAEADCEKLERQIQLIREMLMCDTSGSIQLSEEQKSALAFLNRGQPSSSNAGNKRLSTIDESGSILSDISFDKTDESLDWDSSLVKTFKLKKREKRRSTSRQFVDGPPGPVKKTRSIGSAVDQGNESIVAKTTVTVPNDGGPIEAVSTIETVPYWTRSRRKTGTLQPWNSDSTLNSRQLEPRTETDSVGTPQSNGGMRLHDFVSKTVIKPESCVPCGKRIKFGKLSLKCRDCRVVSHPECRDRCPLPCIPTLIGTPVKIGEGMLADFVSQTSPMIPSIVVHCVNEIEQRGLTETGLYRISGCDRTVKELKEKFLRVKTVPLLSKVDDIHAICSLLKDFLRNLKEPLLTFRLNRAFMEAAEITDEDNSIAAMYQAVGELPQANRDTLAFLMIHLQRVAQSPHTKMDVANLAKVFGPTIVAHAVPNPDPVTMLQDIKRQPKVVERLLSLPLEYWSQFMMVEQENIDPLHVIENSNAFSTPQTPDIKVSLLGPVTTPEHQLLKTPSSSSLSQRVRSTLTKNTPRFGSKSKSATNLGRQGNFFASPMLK

Mu-type opioid receptor = Mu-type opioid receptor (Homo sapiens, UniProt P35372); type: functional, cell-based;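 further: U2OS cells with beta-arrestin recruitment to OPRM1 by beta-gal complementation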
[3] = target: T3, Heat shock factor protein 1 (Mus musculus, UniProt P38532); assay: enhancement of HSF1-driven luciferase signal – cell-based, NIH3T3, luminescence, dose retest, confirmation (AID 435004); type: functional;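 further: stress induced by proteasome inhibitor MG132 added 30 min after compound; luciferase reporter driven by HSF1 response element in NIH3T3 cells; actives raise luminescence as potentiators of the MG132 stress response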
T3 sequence (P38532 whole entry): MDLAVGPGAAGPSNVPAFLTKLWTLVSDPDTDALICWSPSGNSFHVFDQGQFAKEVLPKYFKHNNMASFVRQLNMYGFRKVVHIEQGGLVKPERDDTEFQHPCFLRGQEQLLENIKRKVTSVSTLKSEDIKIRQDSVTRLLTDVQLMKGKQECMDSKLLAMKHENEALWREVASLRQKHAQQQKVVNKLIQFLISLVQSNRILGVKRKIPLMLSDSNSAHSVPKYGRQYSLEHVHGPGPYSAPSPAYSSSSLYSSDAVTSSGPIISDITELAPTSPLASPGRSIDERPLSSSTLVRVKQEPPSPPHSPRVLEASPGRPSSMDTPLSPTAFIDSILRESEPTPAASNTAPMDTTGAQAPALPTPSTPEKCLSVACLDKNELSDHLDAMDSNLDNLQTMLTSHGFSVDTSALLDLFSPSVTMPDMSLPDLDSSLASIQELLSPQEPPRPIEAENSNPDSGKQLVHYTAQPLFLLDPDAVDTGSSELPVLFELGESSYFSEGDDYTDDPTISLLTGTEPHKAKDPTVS

[4] = target: 5-hydroxytryptamine receptor 2A (Mus musculus, UniProt P35363); type: functional, cell-based;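 further: CHO-K1 cells with tagged receptor and beta-arrestin; agonist potency measured as compound-induced activation of the receptor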
[5] = target: T4, Nuclear receptor subfamily 0 group B member 1 (Homo sapiens, UniProt P51843); type: functional, cell-based;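 further: HEK293T cells transfected with SF-1 and DAX-1 plus StAR promoter luciferase reporter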
T4 sequence (P51843 whole entry): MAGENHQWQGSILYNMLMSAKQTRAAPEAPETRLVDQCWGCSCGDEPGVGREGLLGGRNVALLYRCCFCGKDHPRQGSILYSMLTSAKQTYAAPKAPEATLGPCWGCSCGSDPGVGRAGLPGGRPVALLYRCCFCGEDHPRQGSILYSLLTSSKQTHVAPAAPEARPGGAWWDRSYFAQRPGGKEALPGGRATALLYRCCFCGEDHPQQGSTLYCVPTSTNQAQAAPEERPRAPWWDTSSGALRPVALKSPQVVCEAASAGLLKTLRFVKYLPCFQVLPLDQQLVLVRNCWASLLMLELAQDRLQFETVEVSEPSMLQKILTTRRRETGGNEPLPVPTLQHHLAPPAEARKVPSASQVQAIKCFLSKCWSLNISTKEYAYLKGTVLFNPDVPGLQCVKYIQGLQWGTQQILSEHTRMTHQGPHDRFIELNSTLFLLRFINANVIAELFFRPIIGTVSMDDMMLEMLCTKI

cells [6] = type: functional, cell-based
[7] = target: FAD-linked sulfhydryl oxidase ALR (Homo sapiens, UniProt P55789); assay: ALR-catalysed DTT oxidation blockers – biochemical, H2O2 detection, luminescence, cherry-pick, dose response (AID 493248)
cells [8] = type: functional, cell-based; remark: listed apart in the source
cells [9] = type: functional, cell-based; remark: listed apart in the source
[10] = target: T5, Trace amine-associated receptor 1 (Homo sapiens, UniProt Q96RJ0); assay: Fluorescence-based cell-based high throughput dose response assay to identify agonists of the human trace amine associated receptor 1 (TAAR1).; type: functional
T5 sequence (Q96RJ0 whole entry): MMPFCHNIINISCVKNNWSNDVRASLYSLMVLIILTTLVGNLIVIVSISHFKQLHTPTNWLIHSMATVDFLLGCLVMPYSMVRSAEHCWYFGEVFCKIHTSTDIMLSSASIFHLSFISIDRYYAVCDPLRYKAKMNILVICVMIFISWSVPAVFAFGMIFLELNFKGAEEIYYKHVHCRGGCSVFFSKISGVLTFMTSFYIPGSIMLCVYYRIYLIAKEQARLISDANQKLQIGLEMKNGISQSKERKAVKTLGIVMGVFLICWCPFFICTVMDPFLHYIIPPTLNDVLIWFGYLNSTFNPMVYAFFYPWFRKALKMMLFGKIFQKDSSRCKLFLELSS

[11] = target: T5, Trace amine-associated receptor 1; assay: Counterscreen for agonists of the human trace amine associated receptor 1 (hTAAR1): Fluorescence-based cell-based high throughput dose response assay to identify hTAAR1 agonist that also desensitize TAAR1 receptor response.; type: functional
[12] = target: Luciferin 4-monooxygenase (Photinus pyralis, UniProt P08659); assay: inhibition of purified Photinus pyralis luciferase – biochemical, luminescence, dose response (AID 1891)
BJ [13] = assay: cells; type: functional, cell-based; settings: Homo sapiens
[14] = system: Streptococcus sp. 'group A'; assay: Streptococcus pyogenes SK(-)GAS viability under kanamycin – luminescence, BacTiterGlo, confirmation, counter-screen for streptokinase expression inhibitor project, dose response (AID 1900); type: functional, organism-based
Streptococcus = assay: GAS UMAA2166 growth inhibition – luminescence, BacTiterGlo, counter-screen for streptokinase expression inhibitor project, dose response (AID 1915); type: functional, organism-based;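 further: potency for reduction of bacterial viability or growth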
BJ [15] = assay: BJ-TERT fibroblast viability loss – cell-based, RAS-independent, luminescence, dose response (AID 1933); type: functional; settings: Homo sapiens
[16] = Luminescence Cell-Based Dose Confirmation HTS to Identify Inhibitors of Platelet Dense Granule Release. [Related pubchem assays: 1663 (Primary HTS), 1678 (Summary of Project)]; type: functional
BJ [17] = assay: BJ-TERT-LT-ST fibroblast viability loss – cell-based, RAS-independent, luminescence, dose response (AID 1935); type: functional; settings: Homo sapiens;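 further: BJ fibroblasts immortalized with TERT plus LT and ST oncogenes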
[18] = DRD fibroblast viability loss – cell-based, non-viral oncogenic, luminescence, dose response (AID 1934); type: functional; settings: Homo sapiens
Streptokinase A = target: T6, Streptokinase A (Streptococcus pyogenes serotype M1, UniProt P10520); assay: viability-normalized secreted streptokinase activity reduction – plasminogen activation absorbance, OD405, dose response (AID 1914); type: functional, Streptococcus pyogenes M1 GAS;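 further: secreted streptokinase activity via plasminogen activation per viability signal from cell pellet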
T6 sequence (P10520 whole entry): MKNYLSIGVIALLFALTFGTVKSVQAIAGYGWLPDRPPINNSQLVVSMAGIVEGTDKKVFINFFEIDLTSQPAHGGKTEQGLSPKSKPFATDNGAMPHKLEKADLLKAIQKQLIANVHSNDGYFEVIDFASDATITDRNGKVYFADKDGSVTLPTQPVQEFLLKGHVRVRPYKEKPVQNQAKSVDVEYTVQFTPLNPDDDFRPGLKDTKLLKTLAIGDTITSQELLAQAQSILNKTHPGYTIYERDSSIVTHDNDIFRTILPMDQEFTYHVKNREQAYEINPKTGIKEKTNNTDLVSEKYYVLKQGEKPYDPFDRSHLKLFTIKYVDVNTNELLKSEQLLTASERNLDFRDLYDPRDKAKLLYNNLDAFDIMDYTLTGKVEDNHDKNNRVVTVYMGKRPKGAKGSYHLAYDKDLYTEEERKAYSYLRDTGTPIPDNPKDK

[19] = HIV-1 AD8 envelope cell-cell fusion blockers – cherry-pick, dose response (AID 652062); type: functional, cell-based;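 further: luciferase signal from cell-cell fusion driven by HIV-1 clade B AD8 Env; potency is for inhibitors of fusion seen as a drop in luminescence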
[20] = off-target signal loss in HeLa-CEM21 co-culture – HeLa F-luc CTL cells, cherry-picked, counter-screen for HIV-1 Env fusion inhibitor project, dose response (AID 652040); type: functional, cell-based;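 further: potency for signal decrease marking cytotoxic or nonspecific inhibition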
[21] = viability loss in CEM21 cells – cell-based, CellTiter-Glo luminescence, cherry-picked, cytotoxicity control for viral fusion inhibitor project, dose response (AID 652042); type: functional;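 further: potency for signal decrease meaning cytotoxicity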
[22] = blockers of HIV-1 envelope-mediated cell-cell fusion – cherry-pick, dose response (AID 652057); type: functional, cell-based
[23] = blockers of HIV-1 ZM109 envelope-driven cell-cell fusion – HeLa effector, CEM target cells, luciferase, cherry-pick, dose response (AID 652058); type: functional, cell-based;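 further: luciferase signal from HIV-1 Env mediated cell-cell fusion of effector and target cells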

Sequence of 5-hydroxytryptamine receptor 2A (P35363 whole entry): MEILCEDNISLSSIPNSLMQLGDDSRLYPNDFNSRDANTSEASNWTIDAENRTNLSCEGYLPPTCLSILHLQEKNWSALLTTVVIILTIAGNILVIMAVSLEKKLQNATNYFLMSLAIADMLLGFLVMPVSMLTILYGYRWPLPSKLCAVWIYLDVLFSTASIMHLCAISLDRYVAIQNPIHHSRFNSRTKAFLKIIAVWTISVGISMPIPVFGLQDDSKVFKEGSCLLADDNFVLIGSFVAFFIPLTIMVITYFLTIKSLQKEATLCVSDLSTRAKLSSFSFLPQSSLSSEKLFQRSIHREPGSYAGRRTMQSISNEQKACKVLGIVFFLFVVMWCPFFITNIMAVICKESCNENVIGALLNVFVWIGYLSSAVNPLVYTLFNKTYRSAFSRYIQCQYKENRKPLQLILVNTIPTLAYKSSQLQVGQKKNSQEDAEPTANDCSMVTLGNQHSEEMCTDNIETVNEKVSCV
Sequence of Mu-type opioid receptor (P35372 whole entry): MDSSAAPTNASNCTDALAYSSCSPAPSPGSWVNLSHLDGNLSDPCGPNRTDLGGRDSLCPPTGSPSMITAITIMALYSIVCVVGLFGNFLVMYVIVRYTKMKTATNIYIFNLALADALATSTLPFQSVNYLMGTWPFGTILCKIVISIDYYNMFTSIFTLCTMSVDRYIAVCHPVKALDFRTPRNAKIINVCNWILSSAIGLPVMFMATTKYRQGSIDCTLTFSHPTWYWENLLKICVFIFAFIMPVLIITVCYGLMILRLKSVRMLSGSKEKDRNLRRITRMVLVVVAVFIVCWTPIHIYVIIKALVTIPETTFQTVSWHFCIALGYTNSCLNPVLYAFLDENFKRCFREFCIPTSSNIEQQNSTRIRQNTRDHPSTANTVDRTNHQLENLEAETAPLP
Sequence of FAD-linked sulfhydryl oxidase ALR (P55789 whole entry): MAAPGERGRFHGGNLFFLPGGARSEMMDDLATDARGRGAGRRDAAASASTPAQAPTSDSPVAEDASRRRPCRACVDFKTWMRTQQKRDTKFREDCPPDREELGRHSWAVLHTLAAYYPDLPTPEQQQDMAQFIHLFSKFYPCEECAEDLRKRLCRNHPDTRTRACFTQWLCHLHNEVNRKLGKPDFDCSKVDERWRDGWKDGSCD
Sequence of Luciferin 4-monooxygenase (P08659 whole entry): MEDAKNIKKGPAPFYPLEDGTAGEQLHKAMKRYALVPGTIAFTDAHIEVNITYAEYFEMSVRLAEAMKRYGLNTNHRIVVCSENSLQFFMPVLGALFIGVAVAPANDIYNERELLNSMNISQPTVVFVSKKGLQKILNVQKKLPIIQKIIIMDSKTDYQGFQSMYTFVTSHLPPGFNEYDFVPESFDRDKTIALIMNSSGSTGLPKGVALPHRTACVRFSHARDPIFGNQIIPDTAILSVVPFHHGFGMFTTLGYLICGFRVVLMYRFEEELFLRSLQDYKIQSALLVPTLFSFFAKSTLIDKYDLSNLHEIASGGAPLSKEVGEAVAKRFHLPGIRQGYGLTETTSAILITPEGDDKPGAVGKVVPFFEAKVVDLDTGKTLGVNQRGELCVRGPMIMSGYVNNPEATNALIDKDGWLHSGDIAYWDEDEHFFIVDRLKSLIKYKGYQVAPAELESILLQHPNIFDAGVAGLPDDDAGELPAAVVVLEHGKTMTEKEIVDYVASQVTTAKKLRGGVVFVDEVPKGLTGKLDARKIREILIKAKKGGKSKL
Sequence of Large T antigen (P03070 whole entry): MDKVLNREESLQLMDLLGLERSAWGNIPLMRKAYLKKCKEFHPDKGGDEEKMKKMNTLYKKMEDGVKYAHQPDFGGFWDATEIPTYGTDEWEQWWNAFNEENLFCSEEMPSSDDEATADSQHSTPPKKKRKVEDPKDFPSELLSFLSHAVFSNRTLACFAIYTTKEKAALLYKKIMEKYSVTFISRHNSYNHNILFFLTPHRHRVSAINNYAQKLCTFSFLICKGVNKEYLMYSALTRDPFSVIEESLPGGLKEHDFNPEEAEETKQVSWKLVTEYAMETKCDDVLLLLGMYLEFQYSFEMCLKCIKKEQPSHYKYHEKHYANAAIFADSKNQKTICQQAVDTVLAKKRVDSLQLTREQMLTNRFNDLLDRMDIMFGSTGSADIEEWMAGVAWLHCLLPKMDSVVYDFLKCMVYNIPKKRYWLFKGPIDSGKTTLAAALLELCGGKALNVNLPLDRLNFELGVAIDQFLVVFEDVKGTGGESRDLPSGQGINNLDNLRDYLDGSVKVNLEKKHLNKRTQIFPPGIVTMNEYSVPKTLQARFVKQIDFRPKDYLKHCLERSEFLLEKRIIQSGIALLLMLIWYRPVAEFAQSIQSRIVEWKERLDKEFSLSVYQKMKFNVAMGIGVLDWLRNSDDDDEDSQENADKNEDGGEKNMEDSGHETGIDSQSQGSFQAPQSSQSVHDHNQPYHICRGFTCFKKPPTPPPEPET

With OC1CCN(C(S)=Nc2ccc(Nc3ccccc3)cc2)CC1 the IC50 (Large T antigen) was 6.93 µM (active), the AC50 [1] was > 100 µM (inactive) and the IC50 [2] was 38.7 µM (active).

For OCC1(Cc2cccc(C(F)(F)F)c2)CCN(Cc2cc3ccccc3o2)CC1, the EC50 (Mu-type opioid receptor) was 92.5 µM (inactive), the EC50 [3] was > 260 µM (inactive) and the EC50 [4] was 3.6 µM (active).

In the case of C(=C\c1ccccc1)/CN1CCN(C(c2nnnn2-c2ccc3c(c2)OCCO3)C2CC2)CC1 (stereo not given), the EC50 (Mu-type opioid receptor) is reported as 92.3 µM (inactive) and the EC50 [4] is reported as 76 µM (inactive).

For O=C(CSc1cccc[n+]1[O-])c1ccc(-c2ccccc2)cc1, the IC50 [5] was > 67.5 µM (inactive) and the IC50 (cells [6]) was > 67.5 µM (inactive).

With COc1cccc(CN2CCN(c3ncccn3)CC2)c1OC the EC50 (Mu-type opioid receptor) was 92.5 µM (inactive) and the EC50 [4] was 21.6 µM (inactive).

In the case of O=C(O)c1cccc2c1-c1ccccc1/C2=N\Nc1ccccc1, the AC50 [1] is reported as > 100 µM (inactive) and the AC50 [7] is reported as 0.264 µM (active).

For O=C(CCN1CCc2ccccc2C(c2ccccc2)C1)c1ccc2c(c1)OCCO2 (stereo not given), the EC50 (cells [8]) was > 29.9 µM (inactive), the IC50 (cells [9]) was > 29.9 µM (inactive) and the EC50 [10] was 4.51 µM (active). The EC50 [3] was > 260 µM (inactive) and the IC50 [11] was 9.28 µM (active).

With O=Nc1c2cc(-c3ccccc3)n[nH]c-2c2ccccc12 the EC50 [12] was 0.222 µM (active), the IC50 [5] was > 0.833 µM (active) and the EC50 (BJ [13]) was 6.29 µM (active). For the same compound, the EC50 [14] was 5.57 µM (active), the EC50 (Streptococcus) was 14.7 µM (active) and the EC50 (BJ [15]) was 6.53 µM (active). For the same compound, the IC50 (cells [6]) was > 67.5 µM (inactive), the EC50 [16] was 1.47 µM (active) and the EC50 (BJ [17]) was > 150 µM (not active). The EC50 [18] was 4.14 µM (active) and the EC50 (Streptokinase A) was > 150 µM (not active).

In the case of Cc1cnc(C)c(Nc2nc(C(N)Cc3ccc(C(F)(F)F)cc3)cs2)n1 (stereo not given), the AC50 [19] is reported as 7.29 µM (active), the AC50 [20] is reported as 5.07 µM (active) and the AC50 [21] is reported as 18.1 µM (active). For the same compound, the AC50 [22] was 5.44 µM (active) and the AC50 [23] was 10.5 µM (active).
